Measured values as given in US8772268B2, “Bisphosphonamidate prodrugs and uses thereof” (The Johns Hopkins University, priority 2010, dated 2014).
“Also recorded” adds a separate entry of the source. Like-named read-outs stand apart in the source and are kept apart here.

Legend:
L1210 = assay: Cytotoxicity, L1210; format: cell-based
EKVX = assay: NCI-60 DTP Human Tumor Cell Line Screen; format: cell-based; details: Non-Small Cell Lung Cancer, 48 h
RPMI-8226 = assay: NCI-60 DTP Human Tumor Cell Line Screen; format: cell-based; details: RPMI-8226, Leukemia, 48 h
A549 NSCLC cells [1] = assay: MTS cell proliferation assay, A549; format: cell-based; details: for IC50: A549, MTS, read-out: IC50 (decreased cell proliferation by 50% compared to control)
Protocol: Cell proliferation was determined using the CellTiter 96 Aqueous One Solution Cell Proliferation Assay MTS assay. A549 NSCLC cells were plated at 1.5×10^3 cells per well in flat bottom 96 well plates in 99 μL of media and allowed to adhere overnight. The drugs were serially diluted in 100% DMSO. For each drug treatment group, 1 μL of a 100× stock solution was added to each well for a final DMSO concentration of 1%. Cells were treated for 24, 48 or 72 hours. Cells were incubated with MTS dye (20 μL well^−1) for 40 min to 2 h. Absorbance at 490 nm was determined using a SpectraMax M2 (Molecular Devices) plate reader. The percent cell proliferation was calculated by converting the experimental absorbance to percentage of control, which was then plotted vs. drug concentration. The IC50 values were determined using a non-linear dose-response analysis in GraphPad Prism version 4.0. The IC50 is defined as the concentration of drug needed to cause a 50% decrease in proliferation compared to vehicle control. […]

SK-MEL-5 = assay: NCI-60 DTP Human Tumor Cell Line Screen; format: cell-based; details: SK-MEL-5, Melanoma, 48 h
HUVEC = assay: Sprouting assay on dextran beads (anti-angiogenic activity); format: cell-based
Protocol: This assay is an unpublished variation of the assay described (Microvascular Research 2003, 66, 102-112) performed by the Hans Hammers Lab at Johns Hopkins University. The assay described in the above reference is described below.
HUVEC were mixed with dextran-coated Cytodex 3 microcarriers (Amersham Pharmacia Biotech, Piscataway, N.J.) at a concentration of 400 HUVEC per bead in 1 ml of EGM-2 medium (Clonetics, Walkersville, Md.). Beads with cells were shaken gently every 20 min for 4 h at 37° C. and 5% CO2. After incubating, beads with cells were transferred to a 25-cm^2 tissue culture flask (BD Biosciences, Bedford, Mass.) and left for 12-16 h in 5 ml of EGM-2 at 37° C. and 5% CO2. The following day, beads with cells were washed three times with 1 ml of EGM-2 and resuspended at a concentration of 200 cell-coated beads/ml in 2.5 mg/ml of fibrinogen (Sigma, St. Louis, Mo.) with or without 0.15 units/ml of aprotinin (Sigma) at a pH of 7.4. Five hundred microliters of fibrinogen/bead solution was added to 0.625 units of thrombin (Sigma) in one well of a 24-well tissue culture plate. […] Bead assays were monitored for 7 days. […]

MCF7 = assay: NCI-60 DTP Human Tumor Cell Line Screen; format: cell-based; details: MCF7, Breast Cancer, 48 h
PC-3 = assay: NCI-60 DTP Human Tumor Cell Line Screen; format: cell-based; details: PC-3, Prostate Cancer, 48 h
A549 NSCLC cells [2] = assay: Cell cycle analysis (PI and flow cytometry); format: cell-based; details: A549, 0, 3, or 10 μM for 72 h, nocodazole for the last 24 h
Protocol: PI and flow cytometry analysis were performed to study the effects of prodrug 14 on cell cycle.
Briefly, A549 NSCLC cells were plated at 6.7×10^4 cells per well in flat bottom 6-well plates. Cells were dosed as described above. At 24, 48 or 72 hours following drug treatment, the media was collected, and the cells were washed with 1 mL PBS. Each well was trypsinized with 600 μL trypsin for 3-5 min. The trypsin reaction was quenched with an equal volume of media. All supernatants and washes were combined and centrifuged at 1,500 rpm for 5 min. Supernantant was decanted, and the cells were washed with 2 mL 1% FBS/PBS. Cells were centrifuged at 1,500 rpm for 5 min, and the supernatant was decanted. Cells were resuspended in 1 mL cold PBS, fixed in cold 70% ethanol and incubated at 4° C. for at least 30 min. Cells were centrifuged at 1,500 rpm for 5 min, washed with 1% FBS/PBS, and resuspended in 1 mL of 2:1 1% FBS in PBS/phosphate citric acid buffer (pH 7.8). Cells were incubated at room temperature for 5 min, then spun at 1,500 rpm for 5 min. The supernatant was decanted, the cells were resuspended and incubated in 300 μL PBS/FBS/PURNase solution (10 μg/mL propidium iodide and 3 K.U. of RNase A) for 30 mM at 37° C. Flow cytometry was performed to analyze DNA content, collecting ten thousand PI positive gated events per sample.

HS 578T = assay: NCI-60 DTP Human Tumor Cell Line Screen; format: cell-based; details: Breast Cancer, 48 h
HT29 = assay: NCI-60 DTP Human Tumor Cell Line Screen; format: cell-based; details: HT29, Colon Cancer, 48 h
A549 NSCLC cells [3] = assay: Trypan blue cell count assay, A549; details: for EC50: read-out: EC50 (decreased cell number by 50% compared to control), A549, trypan blue
Protocol: A549 NSCLC cells were plated at 1.7×10^4 cells per well in flat bottom 12-well plates. Cells were dosed as described above. At 24, 48 or 72 hours following drug treatment, the media was collected, and the cells were washed with 200 μL PBS. Each well was trypsinized with 200 μL trypsin for 3-5 min. The trypsin reaction was quenched with an equal volume of media. All supernatants and washes were combined and spun at 1,500 rpm for 5 min. Supernatant was decanted, and the cells were resuspended in 200 μL media. The cells were diluted 1:1 in 0.04% trypan blue and counted using a cytometer. The absolute number of cells was determined at each drug concentration. The cell number for each concentration was converted to percent of control for each time point, and plotted using GraphPad Prism 4.0. The EC50 was calculated as the concentration of drug that caused a 50% decrease in number of cells compared to control.
The number of viable cells at each dose was determined at 0, 24, 48 and 72 hours following drug treatment and plotted as a percent of control (FIG. 6A).

DU145 = assay: NCI-60 DTP Human Tumor Cell Line Screen; format: cell-based; details: DU145, Prostate Cancer, 48 h
HCT-15 = assay: NCI-60 DTP Human Tumor Cell Line Screen; format: cell-based; details: HCT-15, Colon Cancer, 48 h

With `CN(CCCCCl)P(=O)(OCc1ccc([N+](=O)[O-])cc1)C(Cl)(Cl)P(=O)(OCc1ccc([N+](=O)[O-])cc1)N(C)CCCCCl` (stereo not shown) [compound 14] the IC50 (L1210) was 11.7 ± 1.78 µM, the Log10GI50 (EKVX) was −5.50 and the Log10LC50 (EKVX) was greater than −4.00. It also gave a Log10TGI (EKVX) greater than −4.00, a Log10GI50 (RPMI-8226) of −5.57 and a Log10LC50 (RPMI-8226) greater than −4.00. The Log10TGI (RPMI-8226) was greater than −4.00, the “growth inhibitory effect on A549 cells” value (A549 NSCLC cells [1]; 48 and 72 h) was “complete growth inhibition” and the “growth inhibitory effect on A549 cells” value (A549 NSCLC cells [1]; 24 h) was “partial growth inhibitory effect”. It also gave an EC50 (A549 NSCLC cells [1]; A549 (NSCLC), MTS, table of Example 3) of 8 µM, an IC50 (A549 NSCLC cells [1]; 24 h) of 7.6 ± 3 µM and an IC50 (A549 NSCLC cells [1]; 48 h) of 5.2 ± 1 µM. It also gave an IC50 (A549 NSCLC cells [1]; 72 h) of 4.4 ± 2 µM, a Log10GI50 (SK-MEL-5) of −5.69 and a Log10LC50 (SK-MEL-5) of −5.05. The Log10TGI (SK-MEL-5) was −5.37, the sprouting (HUVEC; 6 μM) was “sprouting was delayed for the first few days” and the sprouting (HUVEC; 10 μM) was “sprouting is inhibited”. It also gave a Log10GI50 (MCF7) of −5.47, a Log10LC50 (MCF7) greater than −4.00 and a Log10TGI (MCF7) of −4.82. It also gave a Log10GI50 (PC-3) of −5.44, a Log10LC50 (PC-3) greater than −4.00 and a Log10TGI (PC-3) greater than −4.00. For the same molecule, the “effect on cell cycle” value (A549 NSCLC cells [2]) was “G1 cell cycle arrest; also recorded: accumulation of cells in G1 phase is evident”, the Log10GI50 (HS 578T) was −5.53 and the Log10LC50 (HS 578T) was greater than −4.00. For the same molecule, the Log10TGI (HS 578T) was −5.04, the Log10GI50 (HT29) was −5.48 and the Log10LC50 (HT29) was greater than −4.00. The Log10TGI (HT29) was −4.65, the “new growth in fresh media without drug” value (A549 NSCLC cells [3]; 72 h treatment with 30, 100 and 300 μM, then 48 h drug-free) was “No new growth was observed” and the “cell viability reduced by” value (A549 NSCLC cells [3]; A549, 24 h, highest drug concentration tested) was 57%. For the same molecule, the “EC50 (trypan blue) fold higher than IC50 (MTS)” value (A549 NSCLC cells [3]; A549, 48 h) was roughly 1.6 fold, the “viability of A549 cells, of control” value (A549 NSCLC cells [3]; higher doses over 24 h) was “above 50%” and the EC50 (A549 NSCLC cells [3]; 48 h) was 19 ± 4 µM. It also gave an EC50 (A549 NSCLC cells [3]; 72 h) of 16 ± 1 µM, a Log10GI50 (DU145) of −5.40 and a Log10LC50 (DU145) greater than −4.00. The Log10TGI (DU145) was greater than −4.00, the Log10GI50 (HCT-15) was −5.41 and the Log10LC50 (HCT-15) was greater than −4.00. For the same molecule, the Log10TGI (HCT-15) was greater than −4.00.
